# Molecular target: FLAG-tagged PDE2A1 (amino acids 2-941) (Homo sapiens (Human), UniProt O00408)
# Test: IMAP TR-FRET PDE2A enzymatic assay
# Format: biochemical
# Conditions: 200 nM FAM-cAMP substrate, 11-point half-log dose-response
# Excerpt: An IMAP TR-FRET-based phosphodiesterase assay was developed using the PDE2A isoform. IMAP technology is based on high-affinity binding of phosphate by immobilized metal (MIII) coordination complexes on nanoparticles. The IMAP “binding reagent” recognizes phosphate groups on AMP or GMP generated from cAMP or cGMP in a PDE reaction. Cyclic nucleotides that carry a phosphodiester bond and not a free phosphate are not recognized by the binding reagent. The time resolved fluorescence resonance energy transfer (TR-FRET) is afforded by a Terbium (Tb)-Donor pre-bound to the nanoparticles. FRET occurs when the fluorescent-labeled AMP or GMP product of a PDE reaction binds and comes into close proximity to the Tb-Donor complex. Due to the long lifetime of Tb fluorescence, detection can be run in time-resolved mode to reduce or eliminate interference from auto-fluorescent compounds.
# The IMAP TR-FRET PDE2A assay was performed in 1536-well white plates. A total of 250 pg per well of FLAG-tagged PDE2A1 (amino acids 2-941) was dispensed in 2.5 μL IMAP assay buffer consisting of 10 mM Tris pH 7.2, 10 mM MgCl2, 1 mM DTT, and 0.1% fatty acid free BSA. 30 nL of compound was then added from 1 mM stocks in DMSO using a Kalypsys Pintool. Plates were incubated for 5 min at room temperature before dispensing 1.5 μL of 533 nM FAM-cAMP substrate for a final concentration of 200 nM. Following a brief centrifugation, plates were incubated for 30 min at room temperature. The assay was terminated by adding 5 μL IMAP binding reagent Tb complex to each well which was prepared according to manufacturer's recommendations (Molecular Devices). Plates were incubated an additional 90 minutes at room temperature and read on a Viewlux plate reader. All compounds were solvated at a concentration of 10 mM in DMSO and tested in 11-point half-log dose-response. Curve fitting and IC50 values were determined using a standard four parameter fit.
# FLAG-tagged PDE2A1 (amino acids 2-941), sequence (O00408 2-941): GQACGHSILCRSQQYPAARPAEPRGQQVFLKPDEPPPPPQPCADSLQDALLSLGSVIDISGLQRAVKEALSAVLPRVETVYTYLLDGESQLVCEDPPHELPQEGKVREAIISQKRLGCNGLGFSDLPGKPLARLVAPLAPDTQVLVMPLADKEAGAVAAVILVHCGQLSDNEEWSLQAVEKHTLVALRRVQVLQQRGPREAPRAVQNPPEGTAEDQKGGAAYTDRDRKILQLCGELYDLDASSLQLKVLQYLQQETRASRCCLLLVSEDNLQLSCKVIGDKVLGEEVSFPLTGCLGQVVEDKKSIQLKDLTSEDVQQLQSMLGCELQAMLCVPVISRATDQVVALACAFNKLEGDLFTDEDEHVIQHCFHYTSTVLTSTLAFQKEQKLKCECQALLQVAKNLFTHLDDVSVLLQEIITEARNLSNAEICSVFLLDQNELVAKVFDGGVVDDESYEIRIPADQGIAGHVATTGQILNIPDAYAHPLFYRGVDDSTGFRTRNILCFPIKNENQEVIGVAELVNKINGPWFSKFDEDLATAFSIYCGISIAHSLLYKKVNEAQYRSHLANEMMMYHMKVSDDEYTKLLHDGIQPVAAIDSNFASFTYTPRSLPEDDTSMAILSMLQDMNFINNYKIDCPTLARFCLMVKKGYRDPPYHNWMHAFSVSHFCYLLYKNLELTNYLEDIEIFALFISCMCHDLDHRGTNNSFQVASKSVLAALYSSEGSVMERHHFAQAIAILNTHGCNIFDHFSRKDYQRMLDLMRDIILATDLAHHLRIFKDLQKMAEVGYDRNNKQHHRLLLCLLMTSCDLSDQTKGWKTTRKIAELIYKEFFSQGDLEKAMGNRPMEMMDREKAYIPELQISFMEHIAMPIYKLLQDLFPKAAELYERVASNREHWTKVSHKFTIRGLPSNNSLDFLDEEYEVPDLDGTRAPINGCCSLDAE
row,SMILES,PDE2 (PIC50)
1,"Cc1cc(C2CCOC2)n2nc(NCc3cn(-c4ccccc4)nc3C)nc2n1 (centres unmarked) [Example 72, 5-Methyl-N-[(3-methyl-1-phenyl-1H-pyrazol-4-yl)methyl]-7-(oxolan-3-yl)-[1,2,4]triazolo[1,5-a]pyrimidin-2-amine]",>7
2,"Cc1cc(C(C)C)n2nc(NCc3cn(-c4ccccc4)nc3C)nc2n1 [Example 74, 5-Methyl-N-[(3-methyl-1-phenyl-H-pyrazol-4-yl)methyl]-7-(propan-2-yl)-[1,2,4]triazolo[1,5-a]pyrimidin-2-amine]",>7
3,"Cc1cc(C2(C)CC2)n2nc(NCc3cn(-c4ccccc4)nc3C)nc2n1 [Example 76, 5-Methyl-N-[(3-methyl-1-phenyl-1H-pyrazol-4-yl)methyl]-7-(1-methylcyclopropyl)-[1,2,4]triazolo[1,5-a]pyrimidin-2-amine]",>7
4,"Cc1cc(C2CCOCC2)n2nc(NCc3ccc(F)c(Cl)c3F)nc2n1 [Example 78, N-[(3-Chloro-2,4-difluorophenyl)methyl]-5-methyl-7-(oxan-4-yl)-[1,2,4]triazolo[1,5-a]pyrimidin-2-amine]",>7
5,"Cc1cc(C2CCOCC2)n2nc(NCc3cc(Cl)c(F)cc3F)nc2n1 [Example 80, N-[(5-Chloro-2,4-difluorophenyl)methyl]-5-methyl-7-(oxan-4-yl)-[1,2,4]triazolo[1,5-a]pyrimidin-2-amine]",>7
6,"Cc1cc(C2CCOCC2)n2nc(NCc3cc(F)cc(Br)c3)nc2n1 [Example 81, N-[(3-Bromo-5-fluorophenyl)methyl]-5-methyl-7-(oxan-4-yl)-[1,2,4]triazolo[1,5-a]pyrimidin-2-amine]",>7
7,"Cc1cc(C2CCOCC2)n2nc(NCc3cc(-c4ccccc4)nn3C)nc2n1 [Example 82, 5-Methyl-N-[(1-methyl-3-phenyl-1H-pyrazol-5-yl)methyl]-7-(oxan-4-yl)-[1,2,4]triazolo[1,5-a]pyrimidin-2-amine]",>7
8,"Cc1cc(C2CCOCC2)n2nc(NCc3cccc(Br)c3F)nc2n1 [Example 83, N-[(3-Bromo-2-fluorophenyl)methyl]-5-methyl-7-(oxan-4-yl)-[1,2,4]triazolo[1,5-a]pyrimidin-2-amine]",>7
9,"Cc1cc(C2CCOCC2)n2nc(NCc3cc(F)cc(Cl)c3)nc2n1 [Example 84, N-[(3-Chloro-5-fluorophenyl)methyl]-5-methyl-7-(oxan-4-yl)-[1,2,4]triazolo[1,5-a]pyrimidin-2-amine]",>7
10,"Cc1cc(C2CCOCC2)n2nc(NCc3cc(C(F)(F)F)nn3C)nc2n1 [Example 85, 5-Methyl-N-{[1-methyl-3-(trifluoromethyl)-1H-pyrazol-5-yl]methyl}-7-(oxan-4-yl)-[1,2,4]triazolo[1,5-a]pyrimidin-2-amine]",>7

# Same assay, conditions: 200 nM FAM-cAMP substrate, 11-point half-log dose-response, read-out: PDE2 (PIC50)
row,SMILES,IC50
1,"COc1ccc([C@H](C)Nc2nc3nc(C)cc(C4CCOCC4)n3n2)cc1 [Example 69, N-[(1S)-1-(4-Methoxyphenyl)ethyl]-5-methyl-7-(oxan-4-yl)-[1,2,4]triazolo[1,5-a]pyrimidin-2-amine]",1 to 10 µM
2,"Cc1cc(C2CCOCC2)n2nc(NCc3c(F)cncc3F)nc2n1 [Example 70, N-[(3,5-Difluoropyridin-4-yl)methyl]-5-methyl-7-(oxan-4-yl)-[1,2,4]triazolo[1,5-a]pyrimidin-2-amine]",0.1 to 1 µM
3,"Cc1cc(C2CCC2)n2nc(NCc3cn(-c4ccccc4)nc3C)nc2n1 [Example 71, 7-Cyclobutyl-5-methyl-N-[(3-methyl-1-phenyl-1H-pyrazol-4-yl)methyl]-[1,2,4]triazolo[1,5-a]pyrimidin-2-amine]",0.1 to 1 µM
4,"Cc1cc(C2CCOCC2)n2nc(NCc3cc(C#N)ccc3F)nc2n1 [Example 73, 4-Fluoro-3-({[5-methyl-7-(oxan-4-yl)-[1,2,4]triazolo[1,5-a]pyrimidin-2-yl]amino}methyl)benzonitrile]",0.1 to 1 µM
5,"COc1ccc(CNc2nc3nc(C)cc(C4(C)CC4)n3n2)cc1 [Example 75, N-[(4-Methoxyphenyl)methyl]-5-methyl-7-(1-methylcyclopropyl)-[1,2,4]triazolo[1,5-a]pyrimidin-2-amine]",0.1 to 1 µM
6,"COc1ccc(CNc2nc3nc(C)cc(C(C)(C)OC)n3n2)cc1 [Example 77, N-[(4-Methoxyphenyl)methyl]-7-(2-methoxypropan-2-yl)-5-methyl-[1,2,4]triazolo[1,5-a]pyrimidin-2-amine]",1 to 10 µM
7,"Cc1cc(C2CCOCC2)n2nc(NCc3cccc(C#N)c3)nc2n1 [Example 86, 3-({[5-Methyl-7-(oxan-4-yl)-[1,2,4]triazolo[1,5-a]pyrimidin-2-yl]amino}methyl)benzonitrile]",0.1 to 1 µM

# Reference: patent publication US10239882B2, “Substituted 5-methyl-[1,2,4]triazolo[1,5-a]pyrimidin-2-amine compounds as PDE2 inhibitors” (DART NEUROSCIENCE (CAYMAN) LTD., priority 2014, dated 2019)
